The text below walks through data of paper PMC12061832, “Exploring novel dilazep derivatives as hENT1 inhibitors and potentially covalent molecular tools” (Purinergic Signalling, 2024).

“And” between values parts separate entries of the source, which are not always exact repeats. Equal values may be shown once.

This assay addresses T1, hENT1 (Homo sapiens, UniProt Q99808).
T1 construct: performed on erythrocyte cell membranes endogenously expressing the transporter; tissue Sanquin Bloedvoorziening, Amsterdam, The Netherlands; host or cells: erythrocyte membranes (endogenous expression)
T1 sequence (Q99808 1-456): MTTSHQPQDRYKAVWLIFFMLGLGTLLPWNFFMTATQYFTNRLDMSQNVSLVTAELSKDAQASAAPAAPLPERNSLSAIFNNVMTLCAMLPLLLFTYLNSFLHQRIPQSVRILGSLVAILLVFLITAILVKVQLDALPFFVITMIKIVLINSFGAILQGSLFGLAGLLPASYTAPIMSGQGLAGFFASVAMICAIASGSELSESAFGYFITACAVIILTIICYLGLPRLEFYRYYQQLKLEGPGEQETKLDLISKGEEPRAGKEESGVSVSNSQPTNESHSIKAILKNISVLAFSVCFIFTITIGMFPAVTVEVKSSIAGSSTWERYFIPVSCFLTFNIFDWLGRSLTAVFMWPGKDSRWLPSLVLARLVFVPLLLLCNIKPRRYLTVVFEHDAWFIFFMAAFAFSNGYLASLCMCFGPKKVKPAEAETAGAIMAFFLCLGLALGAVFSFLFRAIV
The assay can be described thus: [3H]NBTI displacement assay on erythrocyte membranes. It is filed as binding. To be noted: 1 µM inhibitor; [3H]NBTI displacement; mean (individual values) of two experiments. As for the experimental part:
Dilazep and ST7092 were obtained from ASTA-Werke AG (Bielefeld, Germany) and Chemie Linz AG (Linz, Austria), respectively. Radioligand displacement assays were performed as previously described. In brief, the experiments were performed on erythrocyte membranes (Sanquin Bloedvoorziening, Amsterdam, The Netherlands) using a single concentration of 1 µM or multiple concentrations (ranging from 10^–10 to 10^–6) of unlabeled inhibitors in the presence of 4 nM [^3H]NBTI at 10 °C for 1 h in assay buffer (50 mM Tris–HCl, pH 7.4, 0.1% w/v CHAPS). Non-specific binding (NSB) was assessed with 10 µM unlabeled NBTI. […] Subsequently, [^3H]NBTI was added to the preincubated and control samples (containing erythrocyte membranes, unlabeled inhibitor and radioligand) and both types of samples were incubated for another hour. Incubation was terminated by rapid vacuum filtration over Whatman™ UniFilter™ 96-well GF/C microplates using a FilterMate™ Universal Harvester (PerkinElmer, Groningen, The Netherlands). Subsequently, the plates were washed ten times with ice-cold wash buffer (50 mM Tris–HCl, pH 7.4). Thereafter, the filters were dried for 45 min at 55 °C and 25 µL of Microscint (PerkinElmer) was added per well. The filter-bound radioactivity was determined by scintillation spectrometry using a MicroBeta^2 2450 Microplate Counter (PerkinElmer).
For data analysis, dilazep and ST7092 were used as positive controls. All experimental data was analyzed using GraphPad Prism 10.0.2 software (GraphPad Software Inc., San Diego, CA, USA). [^3H]NBTI assays were baseline-corrected with NSB and normalized to this value (0%) and TB (100%). The radioligand displacement curves were fitted to a one-site binding model by nonlinear regression from which the pIC50 values were obtained. […] Data shown represent the mean ± SD of at least two or mean ± SEM of at least three individual experiments each performed in duplicate.
To determine the affinities of the non-covalent hENT1 inhibitors, a [^3H]NBTI displacement assay was performed on erythrocyte cell membranes endogenously expressing the transporter. All compounds were initially screened at a concentration of 1 µM to provide the percentage displacement. If more than 75% displacement was observed, compounds were subsequently characterized in full concentration-effect curves to determine their affinity.
With “3-(4-(3-((3-(methylamino)benzoyl)oxy)propyl)piperazin-1-yl)propyl 3,4,5-trimethoxybenzoate [Compound 6j]”, the “% displacement at 1 μM” value was 17 (16, 19) %. The same measure for “3-(4-(3-((4-(methylamino)benzoyl)oxy)propyl)piperazin-1-yl)propyl 3,4,5-trimethoxybenzoate [Compound 6i]”: 6 (3, 9) %; for `COc1cc(C(=O)OCCCN2CCN(CCCOC(=O)c3ccccc3)CC2)cc(OC)c1OC` [Compound 6a, 3-(4-(3-(benzoyloxy)propyl)piperazin-1-yl)propyl 3,4,5-trimethoxybenzoate]: -3 (0, -5) %.

`COc1cc(C(=O)OCCCN2CCN(CCCOC(=O)c3ccc(C)cc3)CC2)cc(OC)c1OC` [Compound 6b, 3-(4-(3-((4-methylbenzoyl)oxy)propyl)piperazin-1-yl)propyl 3,4,5-trimethoxybenzoate]: the “% displacement at 1 μM” value was 7 (10, 3) %.

In the case of `COc1cc(C(=O)OCCCN2CCN(CCCOC(=O)c3ccc(C)c(C)c3)CC2)cc(OC)c1OC` [Compound 6c, 3-(4-(3-((3,4-dimethylbenzoyl)oxy)propyl)piperazin-1-yl)propyl 3,4,5-trimethoxybenzoate], the “% displacement at 1 μM” value is listed as -7 (-7, -8) %. `COc1cc(C(=O)OCCCN2CCN(CCCOC(=O)c3cc(C)cc(C)c3)CC2)cc(OC)c1OC` [Compound 6d, 3-(4-(3-((3,5-dimethylbenzoyl)oxy)propyl)piperazin-1-yl)propyl 3,4,5-trimethoxybenzoate]: the “% displacement at 1 μM” value is reported as -4 (-4, -4) %. On to `COc1cc(C(=O)OCCCN2CCN(CCCOC(=O)c3ccc(Cl)cc3)CC2)cc(OC)c1OC` [Compound 6e, 3-(4-(3-((4-chlorobenzoyl)oxy)propyl)piperazin-1-yl)propyl 3,4,5-trimethoxybenzoate], for which the “% displacement at 1 μM” value is “not able to inhibit [^3H]NBTI binding and 1 (3, -1) %”. Next, `COc1cc(C(=O)OCCCN2CCN(CCCOC(=O)c3ccc(Cl)c(Cl)c3)CC2)cc(OC)c1OC` [Compound 6f, 3-(4-(3-((3,4-dichlorobenzoyl)oxy)propyl)piperazin-1-yl)propyl 3,4,5-trimethoxybenzoate]: -4 (-7, -1) %; `COc1cc(C(=O)OCCCN2CCN(CCCOC(=O)c3cccc(N(C)C)c3)CC2)cc(OC)c1OC` [Compound 6g, 3-(4-(3-((3-(dimethylamino)benzoyl)oxy)propyl)piperazin-1-yl)propyl 3,4,5-trimethoxybenzoate]: 21 (21, 21) %. Next, `COc1cc(C(=O)OCCCN2CCN(CCCOC(=O)c3ccc(N(C)C)cc3)CC2)cc(OC)c1OC` [Compound 6h, 3-(4-(3-((4-(dimethylamino)benzoyl)oxy)propyl)piperazin-1-yl)propyl 3,4,5-trimethoxybenzoate]: 19 (11, 26) %; `COc1ccccc1C(=O)OCCCN1CCN(CCCOC(=O)c2cc(OC)c(OC)c(OC)c2)CC1` [Compound 6k, 3-(4-(3-((2-methoxybenzoyl)oxy)propyl)piperazin-1-yl)propyl 3,4,5-trimethoxybenzoate]: “little to no displacement and 6 (5, 8) %”; `COc1cccc(C(=O)OCCCN2CCN(CCCOC(=O)c3cc(OC)c(OC)c(OC)c3)CC2)c1` [Compound 6l, 3-(4-(3-((3-methoxybenzoyl)oxy)propyl)piperazin-1-yl)propyl 3,4,5-trimethoxybenzoate]: “little to no displacement and 9 (3, 16) %”. Next, `COc1ccc(C(=O)OCCCN2CCN(CCCOC(=O)c3cc(OC)c(OC)c(OC)c3)CC2)cc1` [Compound 6m, 3-(4-(3-((4-methoxybenzoyl)oxy)propyl)piperazin-1-yl)propyl 3,4,5-trimethoxybenzoate]: “around 30% and 36 (39, 33) %”.
